The values that follow come from ChEMBL document CHEMBL1124634, “Synthesis and antirhinovirus activity of 6-(dimethylamino)-2-(trifluoromethyl)-9-(substituted benzyl)-9H-purines” (J Med Chem, 1989).

Assay [1] deals with Human rhinovirus sp. As to the kind of experiment: Antiviral activity against rhinoviral-1B serotype in a plaque inhibition assay using monolayers of M-HeLa cells. Format: functional, organism-based.
The test system of assay [2] is Human rhinovirus sp. Description: Antiviral activity against rhinoviral 29 serotype in a plaque inhibition assay using monolayers of M-HeLa cells. The class given is functional, organism-based.
Assay [3] deals with Human rhinovirus sp. Description: Percent inhibitory activity at 8 uM against rhinoviral 5 serotype in a plaque inhibition assay using monolayers of M-HeLa cells. The class given is functional.
Assay [4] relates to Human rhinovirus sp. As to the kind of experiment: Antiviral activity against rhinoviral 8 serotype in a plaque inhibition assay using monolayers of M-HeLa cells. Format: functional, organism-based.
The test system of assay [5] is Human rhinovirus sp. Description: Antiviral activity against rhinoviral 21 serotype in a plaque inhibition assay using monolayers of M-HeLa cells. Format: functional, organism-based.
The test system of assay [6] is Human rhinovirus sp. As to the kind of experiment: Antiviral activity against rhinoviral 2 serotype in a plaque inhibition assay using monolayers of M-HeLa cells. The class given is functional, organism-based.
Assay [7] deals with Human rhinovirus sp. As to the kind of experiment: Antiviral activity against rhinoviral-1A serotype in a plaque inhibition assay using monolayers of M-HeLa cells. The class given is functional, organism-based.
For assay [8], the system named is Human rhinovirus sp. As to the kind of experiment: Antiviral activity against rhinoviral 30 serotype in a plaque inhibition assay using monolayers of M-HeLa cells. Format: functional, organism-based.
Assay [9] has as its system Human rhinovirus sp. As to the kind of experiment: Antiviral activity against rhinoviral 14 serotype in a plaque inhibition assay using monolayers of M-HeLa cells. The class given is functional, organism-based.
Assay [10] has as its system Human rhinovirus sp. As to the kind of experiment: Antiviral activity against rhinoviral 9 serotype in a plaque inhibition assay using monolayers of M-HeLa cells. Format: functional, organism-based.
For assay [11], the system named is Human rhinovirus sp. As to the kind of experiment: Antiviral activity against rhinoviral 3 serotype in a plaque inhibition assay using monolayers of M-HeLa cells. The class given is functional, organism-based.
Assay [12] has as its system Human rhinovirus sp. As to the kind of experiment: Antiviral activity against rhinoviral 31 serotype in a plaque inhibition assay using monolayers of M-HeLa cells. Format: functional, organism-based.
The subject of assay [13] is Human rhinovirus sp. As to the kind of experiment: Antiviral activity against rhinoviral 12 serotype in a plaque inhibition assay using monolayers of M-HeLa cells. The class given is functional, organism-based.
For assay [14], the system named is Human rhinovirus sp. As to the kind of experiment: Antiviral activity against rhinoviral 16 serotype in a plaque inhibition assay using monolayers of M-HeLa cells. The class given is functional, organism-based.
Assay [15] deals with Human rhinovirus sp. As to the kind of experiment: Antiviral activity against rhinoviral 18 serotype in a plaque inhibition assay using monolayers of M-HeLa cells. Format: functional, organism-based.
The subject of assay [16] is Human rhinovirus sp. As to the kind of experiment: Antiviral activity against rhinoviral 15 serotype in a plaque inhibition assay using monolayers of M-HeLa cells. The class given is functional, organism-based.
For assay [17], the system named is Human rhinovirus sp. Description: Percent inhibitory activity at 8 uM against rhinoviral 19s erotype in a plaque inhibition assay using monolayers of M-HeLa cells. The class given is functional.
Assay [18] has as its system Human rhinovirus sp. Description: Percent inhibitory activity at 8 uM against rhinoviral 13 serotype in a plaque inhibition assay using monolayers of M-HeLa cells. The class given is functional.
In assay [19] the test system is Human rhinovirus sp. As to the kind of experiment: Antiviral activity against rhinoviral 4 serotype in a plaque inhibition assay using monolayers of M-HeLa cells. Format: functional, organism-based.
Assay [20] deals with Human rhinovirus sp. As to the kind of experiment: Percent inhibitory activity at 8 uM against rhinoviral 15 serotype in a plaque inhibition assay using monolayers of M-HeLa cells. The class given is functional.
Assay [21] deals with Human rhinovirus sp. As to the kind of experiment: Antiviral activity against rhinoviral 5 serotype in a plaque inhibition assay using monolayers of M-HeLa cells. Format: functional, organism-based.
In assay [22] the test system is Human rhinovirus sp. Description: Percent inhibitory activity at 8 uM against rhinoviral 14 serotype in a plaque inhibition assay using monolayers of M-HeLa cells. Format: functional.
Assay [23] has as its system Human rhinovirus sp. Description: Percent inhibitory activity at 8 uM against rhinoviral 21 serotype in a plaque inhibition assay using monolayers of M-HeLa cells. The class given is functional.

`CN(C)c1nc(C(F)(F)F)nc2c1ncn2Cc1ccc(NC=O)cc1` yielded an IC50 in the assay with Human rhinovirus sp. [1] of 0.18 µM. In other words, the sub-micromolar range.
Regarding `CN(C)c1nc(C(F)(F)F)nc2c1ncn2Cc1ccccc1[N+](=O)[O-]`, the IC50 in the assay on Human rhinovirus sp. [1] came out at 280 µM.
Still for that read-out and setting: the result for `COc1cc(Cl)ccc1Cn1cnc2c(N(C)C)nc(C(F)(F)F)nc21` reads 135 µM.
With `CN(C)c1nc(C(F)(F)F)nc2c1ncn2Cc1ccc(Br)cc1`, the IC50 in the assay with Human rhinovirus sp. [2] turned out to be 3.2 µM; in the assay with Human rhinovirus sp. [4], 8.3 µM; with Human rhinovirus sp. [5] it was 5 µM; in the assay with Human rhinovirus sp. [6], 7.3 µM; in the assay with Human rhinovirus sp. [7], 0.76 µM; in the assay on Human rhinovirus sp. [8], 4.6 µM. Further, the IC50 in the assay with Human rhinovirus sp. [1] was 0.03 µM; with Human rhinovirus sp. [9] it was 8.1 µM; with Human rhinovirus sp. [10], 0.7 µM; in the assay with Human rhinovirus sp. [11] it was 8 µM; in the assay with Human rhinovirus sp. [12] it was 5.5 µM; with Human rhinovirus sp. [13] it was 9.5 µM. Also, the IC50 came out at 1.2 µM in the assay with Human rhinovirus sp. [14], 7.5 µM with Human rhinovirus sp. [15], 5.7 µM in the assay on Human rhinovirus sp. [16] and 7.6 µM in the assay on Human rhinovirus sp. [19]. Also, the Inhibition in the assay on Human rhinovirus sp. [3] was 37%; in the assay with Human rhinovirus sp. [17] it was 27%; in the assay with Human rhinovirus sp. [18], 40%.
`CN(C)c1nc(C(F)(F)F)nc2c1ncn2Cc1ccc(N)cc1` registered an IC50 with Human rhinovirus sp. [1] of 0.13 µM.
Still for that read-out and setting: the same measure for `CN(C)c1nc(C(F)(F)F)nc2c1ncn2Cc1cccc([N+](=O)[O-])c1`: 0.13 µM.
Consider `CC(C)Oc1ccc(Cn2cnc3c(N(C)C)nc(C(F)(F)F)nc32)cc1`, for which the IC50 worked out at 2.5 µM in the assay on Human rhinovirus sp. [2]; 10 µM in the assay on Human rhinovirus sp. [4]; 5.2 µM in the assay with Human rhinovirus sp. [6]; 11 µM with Human rhinovirus sp. [21]; 2.8 µM in the assay on Human rhinovirus sp. [7]; 6.6 µM in the assay with Human rhinovirus sp. [8]. Besides, the IC50 in the assay on Human rhinovirus sp. [1] amounted to 1 µM; with Human rhinovirus sp. [10], 1.5 µM; in the assay on Human rhinovirus sp. [11], 8 µM; in the assay on Human rhinovirus sp. [12], 4.2 µM; with Human rhinovirus sp. [13], 10 µM; in the assay on Human rhinovirus sp. [14], 2.1 µM. The IC50 was 6.8 µM in the assay with Human rhinovirus sp. [15] and 3.7 µM in the assay on Human rhinovirus sp. [19]. The Inhibition with Human rhinovirus sp. [20] was determined as 40%; with Human rhinovirus sp. [22], 22%; with Human rhinovirus sp. [23] it was 40%; in the assay with Human rhinovirus sp. [17], 33%; in the assay with Human rhinovirus sp. [18], 39%.
For the compound `CN(C)c1nc(C(F)(F)F)nc2c1ncn2Cc1cccc(C(=O)O)c1`, the midpoint of inhibition with Human rhinovirus sp. [1], the IC50, lay at 4.6 µM.
Same read-out and setting: the same measure for `CCCCOc1ccc(Cn2cnc3c(N(C)C)nc(C(F)(F)F)nc32)cc1`: 2.1 µM; for `CN(C)c1nc(C(F)(F)F)nc2c1ncn2Cc1ccc(Cl)cc1NC=O`: 6.9 µM.
Same read-out and setting: the same measure for `COc1cc(C)ccc1Cn1cnc2c(N(C)C)nc(C(F)(F)F)nc21`: 70 µM; for `CN(C)c1nc(C(F)(F)F)nc2c1ncn2Cc1cccc(N)c1`: 0.3 µM; for `CC(=O)Nc1ccc(Cn2cnc3c(N(C)C)nc(C(F)(F)F)nc32)cc1`: 0.37 µM.
The compound `CN(C)c1nc(C(F)(F)F)nc2c1ncn2Cc1ccc(C(=O)O)cc1` returned an IC50 in the assay on Human rhinovirus sp. [1] of 4.6 µM.
For the compound `CCOC(=O)c1ccc(Cn2cnc3c(N(C)C)nc(C(F)(F)F)nc32)cc1`, half-maximal inhibition with Human rhinovirus sp. [1] (IC50) was put at 5 µM.
On to `CN(C)c1cccc(Cn2cnc3c(N(C)C)nc(C(F)(F)F)nc32)c1`, for which, in the assay on Human rhinovirus sp. [1], the IC50 was found to be 0.25 µM.
On the same count and under the same terms, the result for `CN(C)c1nc(C(F)(F)F)nc2c1ncn2Cc1cccc(OCc2ccccc2)c1` reads 1.1 µM; that for `CN(C)c1nc(C(F)(F)F)nc2c1ncn2Cc1ccc(CO)cc1`, 0.2 µM; that for `CN(C)c1nc(C(F)(F)F)nc2c1ncn2Cc1ccc(O)cc1`, 0.17 µM.
On the same count and under the same terms, the result for `COC(=O)c1cccc(Cn2cnc3c(N(C)C)nc(C(F)(F)F)nc32)c1` reads 2.6 µM; that for `CN(C)c1nc(C(F)(F)F)nc2c1ncn2Cc1ccc(Cl)cc1[N+](=O)[O-]`, 0.53 µM; that for `COc1cccc(Cn2cnc3c(N(C)C)nc(C(F)(F)F)nc32)c1`, 0.1 µM.
